This passage reports IC50 results from BindingDB's records for patent US12319672 (Idorsia Pharmaceuticals, 2025).

One assay has as its target Galectin-1 (Homo sapiens, UniProt P09382). Description: Inhibitory Activity Assay. The method, then: (§1) The inhibitory activity of compounds is determined in competitive binding assays. This spectrophotometric assay measures the binding of biotinylated human Gal-3 (hGal-3) or human Gal-1 (hGal-1), respectively, to a microplate-adsorbed glycoprotein, asialofetuin (ASF) (Proc Natl Acad Sci USA. 2013 Mar. 26; 110(13):5052-7.). Alternatively, and preferably, a human Gal-1 version in which all six cysteines are substituted by serines may be used.Briefly, compounds are serially diluted in DMSO (working dilutions). ASF-coated 384 well plates are supplemented with 22.8 μL/well of biotinylated hGal-3 or hGal-1 in assay buffer (i.e. 300-1000 ng/mL biotinylated hGal-3 or hGal-1) to which 1.2 μL of compound working dilutions are added and mixed.Plates are incubated for 3 hours at 4° C., then washed with cold assay buffer (3×50 uL), incubated for 1 hour with 25 μL/well of a streptavidin-peroxidase solution (diluted in assay buffer to 80 ng/mL) at 4° C., followed by further washing steps with assay buffer (3×50 uL). Finally, 25 μL/well of ABTS substrate is added.

The next assay deals with Galectin-3 (Homo sapiens, UniProt P17931). In words: Inhibitory Activity Assay. How it is done: as §1
Chain of Galectin-3 (P17931 whole entry): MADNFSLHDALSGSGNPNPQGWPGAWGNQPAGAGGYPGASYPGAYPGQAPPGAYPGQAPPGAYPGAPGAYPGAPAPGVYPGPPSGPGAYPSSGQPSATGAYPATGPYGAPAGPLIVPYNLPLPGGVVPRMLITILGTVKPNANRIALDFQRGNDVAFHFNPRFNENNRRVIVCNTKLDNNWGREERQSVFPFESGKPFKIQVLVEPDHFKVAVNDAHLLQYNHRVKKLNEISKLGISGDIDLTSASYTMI

Chain of Galectin-1 (P09382 whole entry): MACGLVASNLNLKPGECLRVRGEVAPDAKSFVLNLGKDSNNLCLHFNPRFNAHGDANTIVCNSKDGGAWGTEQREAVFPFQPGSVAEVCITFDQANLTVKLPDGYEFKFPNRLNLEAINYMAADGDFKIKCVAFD

Consider `CO[C@@H]1[C@@H](n2cc(-c3ccc(Cl)c(F)c3F)nn2)[C@@H](O)[C@@H](CO)O[C@@H]1Cc1cc(C2CCN(C(C)=O)CC2)on1` [US12319672, Example 1.163], for which the figures for the IC50 at Galectin-1 and on Galectin-3 were 710 nM and 43 nM, respectively.

On to `CC(=O)N1CCC(c2cc(C[C@H]3O[C@H](CO)[C@H](O)[C@H](n4cc(-c5cc(F)c(F)c(F)c5)nn4)[C@H]3O)no2)CC1` [US12319672, Example 3.17], for which the figures for the IC50 against Galectin-1 and at Galectin-3 were 960 nM and 46 nM, respectively.

Consider `CO[C@@H]1[C@@H](n2cc(-c3cc(F)c(Cl)c(F)c3)nn2)[C@@H](O)[C@@H](CO)O[C@@H]1Cc1cc(C2CCN(C(C)=O)CC2)on1` [US12319672, Example 1.167], for which the IC50 (usually the concentration that gives 50% inhibition) on Galectin-1 stood at 910 nM; at Galectin-3, 40 nM.

As for `CC(C)(C)c1cc(C[C@H]2O[C@H](CO)[C@H](O)[C@H](n3cc(-c4ccc(Cl)c(F)c4F)nn3)[C@H]2O)on1` [US12319672, Example 1.302], the concentration for half-maximal inhibition (IC50) against Galectin-1 was 1000 nM; against Galectin-3, 36 nM.

`CO[C@@H]1[C@@H](n2cc(-c3ccc(Cl)c(F)c3F)nn2)[C@@H](O)[C@@H](CO)O[C@@H]1Cc1cc(C2(C#N)CCCC2)on1` [US12319672, Example 1.279]: the IC50 against Galectin-1 amounted to 3210 nM; at Galectin-3 it was 120 nM.

For the compound `CO[C@@H]1[C@@H](n2cc(-c3ccc(Br)c(F)c3F)nn2)[C@@H](O)[C@@H](CO)O[C@@H]1Cc1cc(C2CCN(S(C)(=O)=O)CC2)on1` [US12319672, Example 1.155], the values for the IC50 against Galectin-1 and at Galectin-3 were 1050 nM and 22 nM, respectively.

On to `CO[C@@H]1[C@@H](n2cc(-c3ccc(C)c(F)c3F)nn2)[C@H]2OC(C)(C)OC[C@H]2O[C@@H]1Cc1cc(C(C)c2ccccc2)no1` (some centres undefined) [US12319672, Example 1.341], for which the IC50 on Galectin-1 amounted to 15700 nM; on Galectin-3, 200 nM.

Consider `Cc1nc2ccc(-c3cn([C@H]4[C@@H](O)[C@@H](CO)O[C@H](CC5CC(C6CCN(C(=O)OC(C)(C)C)CC6)=NO5)[C@@H]4O)nn3)cc2s1` (some centres undefined) [US12319672, Example 1.299], for which the IC50 is 3840 nM against Galectin-1 and 4040 nM against Galectin-3.

For the compound `CO[C@@H]1[C@@H](n2cc(-c3ccc(C)c(F)c3F)nn2)[C@@H](O)[C@@H](CO)O[C@@H]1Cc1cc(C2(O)CCC2)no1` [US12319672, Example 2.57], the IC50 against Galectin-1 was 1450 nM; against Galectin-3 it was 81 nM.

Turning to `CO[C@@H]1[C@@H](n2cc(-c3cc(F)c(F)c(F)c3)nn2)[C@@H](O)[C@@H](CO)O[C@@H]1CC1=NOC(C(C)(C)O)C1` (some centres undefined) [US12319672, Example 1.68], the results for the IC50 against Galectin-1 and against Galectin-3 were 5090 nM and 470 nM, respectively.

On to `CO[C@@H]1[C@@H](n2cc(-c3ccc(F)c(F)c3F)nn2)[C@@H](O)[C@@H](CO)O[C@@H]1Cc1cc(-c2ccc(F)c(F)c2F)on1` [US12319672, Example 1.230], for which the IC50 against Galectin-1 is over 100000 nM; against Galectin-3 it was 540 nM.

Turning to `CO[C@@H]1[C@@H](n2cc(-c3ccc(F)c(F)c3F)nn2)[C@@H](O)[C@@H](CO)O[C@@H]1Cc1cc(C2(C#N)CCCC2)on1` [US12319672, Example 1.277], the values for the IC50 against Galectin-1 and on Galectin-3 were 1470 nM and 140 nM, respectively.
